For data set [1], the system named is explanted mouse adrenal membrane (adrenal halves). In words: in vitro Serum-free Adrenal Inhibition Assay (Example 4). The class given is cell-based. The settings on record: for in vitro activity, % corticosterone induction relative to mACTH(1-24): FIG. 5, method of Example 4; for in vitro activity compared with in vivo activity of the same analog: FIG. 5, in vitro Example 4, in vivo Example 1. As to the method: A series of separate in vitro Serum-Free Adrenal Corticosteroid Inhibition Assay were performed to identify ACTH analogs that inhibit ACTH-induced adrenal hormone production in vitro. The concentration of corticosterone was measured according to the procedure of Example 4 in a serum-free culture medium containing explanted adrenal membrane and unmodified ACTH, AT814 ACTH analog (SEQ ID NO:20), or a combination of ACTH and AT814 at 100 ng/mL each. […] Corticosterone levels were taken at 2.0 hours after the adrenal membrane was placed in the serum free M199 medium, and each corticosterone level in Table 5 is an average of five samples.
The in vitro Serum-free Adrenal Inhibition Assay was performed according the following method. First, adrenals were removed from mice, dissected free of fat, and cut in half. See Costa, J L, et al., “Mutational analysis of evolutionarily conserved ACTH residues,” Gen Comp Endocrinol. 136:12-16 (2004); and Weber, M M, et al., “Postnatal overexpression of insulin-like growth factor II in transgenic mice is associated with adrenocortical hyperplasia and enhanced steroidogenesis,” Endocrinology 140:1537-1543 (1999), incorporated herein by reference.
Second, each adrenal half was placed into an individual well of a 4-well dish, one dish per mouse. Adrenal halves were incubated at 5% CO2, 37° C., in 0.5 ml serum-free medium (M199; Invitrogen) for 30 minutes to equilibrate.
Third, medium was removed and replaced by 0.5 ml M199 containing ACTH, AT814, or both, at 100 ng/ml each; controls had no peptides added.
Fourth, after 2 hours of incubation, the medium was removed, pooled for all four halves from each mouse, and assayed by corticosterone using standard RIA methods. corticosterone was determined by competitive radioimmunoassay (^125I RIA kit; ICN, Costa Mesa, Calif.) according to the manufacturer's recommendations. One microliter of serum was used per assay sample. Samples were run in duplicates.

The subject of data set [2] is dexamethasone-suppressed male FVB/N mice. In words: in vivo Serum Corticosteroid Induction Assay (Example 1). Also on record: species or system mouse. The settings on record: for in vivo activity, % corticosterone induction relative to mACTH(1-24): FIG. 5, method of Example 1; for Percent reduction in serum corticosteroid: relative to unmodified mACTH(1-24), 1 μg subcutaneously to dexamethasone-suppressed mice, blood one hour later. On the procedure: An in vivo Serum Corticosteroid Induction Assay measures the level of corticosteroid or corticosterone in the blood stream of a subject. More specifically, the in vivo Serum Corticosteroid Induction Assay can include the following steps: first, an agent to suppress endogenous ACTH production was administered to a mouse subject, such as an intraperitoneal injection of dexamethasone; second, after waiting a suitable period of time for suppression of endogenous ACTH production (e.g., 1.5-2.0 hours), a test compound can be administered to the mouse by a suitable method, such as intraperitoneal or subcutaneous injection; and third, after waiting a suitable period of time (e.g., 1 hour) for action of the injected test compound, a blood sample can be taken from the subject and the level of serum corticosterone can be determined by a suitable method, such as a competitive radioimmunoassay using ^125I RIA kit (ICN, Costa Mesa, Calif.). Example 1 describes a murine in vivo Serum Corticosteroid Induction Assay in detail.
The corticosteroid or corticosterone secretion induced in vivo by an ACTH analog compound was compared to the level of corticosteroid secretion produced by an unmodified ACTH compound by measuring blood serum corticosteroid after administering either the ACTH or ACTH analog as test compounds. […] ACTH analog compositions with decreased function were identified by measuring corticosterone levels using standard radioimmunoassay (RIA) analysis on blood samples collected one hour after administering the mACTH(1-24) or ACTH analog compound to dexamethasone-suppressed mice. In FIG. 1, the potency of various ACTH analog peptides is expressed as percent induction of corticosterone, with mouse ACTH being 100%. […] The percent of corticosterone induction 12 of ACTH analog Compounds in Samples 2-10 are shown as a percentage of the concentration of serum corticosterone 20 measured for unmodified mACTH(1-24) in the in vivo Serum Corticosteroid Adrenal Induction Assay. The structural modifications and measured percentage reduction in serum measured for Samples 2-10 in FIG. 1 are shown in Table 3 below.
The in vivo Serum Corticosteroid Induction Assay was performed according the following method. First, two to three month-old male FVB/N mice from our colony, five per group, were injected intraperitoneally with dexamethasone (0.4 mg/0.1 ml PBS per mouse; Sigma, St. Louis, Mo.) to suppress their endogenous ACTH production. See Hajos, G T et al., “Studies of the potency of polypeptides with ACTH action by a new method based on continuous measurement of plasma corticosterone,” Steroids Lipids Res 3:225-228 (1972), Costa, J L, et al., “Mutational analysis of evolutionarily conserved ACTH residues,” Gen Comp Endocrinol, 136:12-16 (2004), and Karpac, J, et al., “Development, Maintenance, and Function of the Adrenal Gland in Early Postnatal Pro-opiomelanocortin Null Mutant Mice,” Endocrinology (2005), published online ahead of print Feb. 24, 2005, all of which are incorporated herein by reference.
Second, ninety to one hundred twenty minutes later, the dexamethasone-suppressed mice were injected subcutaneously between the shoulder blades with either unmodified mACTH(1-24) or one of several ACTH analog peptide compounds (1 μg/0.1 mL PBS/0.5% BSA), or with vehicle alone (control) (0.1 mL PBS/0.5% BSA). The following ACTH analog peptide compounds were administered to separate mice: 1: murine ACTH1-24; 2: V26F,E30K; 3: P19W,K21E,Y23R; 4: E30K,P36R; 5: ALA19-24; 6: V26F,P36R; 7: P19W, K21E; 8: P19W,K21A,delY23; 9: P19W,K21A; 10: KRRP16-19RAAW (AT814) (SEQ ID NO:20).
Third, one hour later, blood was collected within less than 1 minute from a small incision in the tail, and serum was flash-frozen and stored at −80° C. until assayed. Serum corticosterone was determined by competitive radioimmunoassay (^125I RIA kit; ICN, Costa Mesa, Calif.) according to the manufacturer's recommendations. One microliter of serum was used per assay sample. […]

“(K16A, R17A)mACTH(1-24) [ACTH analog 420]”: in data set [1], the “in vitro activity, % corticosterone induction relative to mACTH(1-24)” value is recorded as “reduced” and the “in vitro activity compared with in vivo activity of the same analog” value is reported as “greater than its in vivo activity”. In data set [2], the “in vivo activity, % corticosterone induction relative to mACTH(1-24)” value is “reduced”.

Take “(P19W, K21A)mACTH (SYSMEHFRWGKPVGKKRRWVAVYPNVAENESAEAFPLEF; Corticotropin residues 1-24; UniProt P01193 124-162, looked up, variant P19W K21A) [Sample 9]”: in data set [1], the “in vitro activity, % corticosterone induction relative to mACTH(1-24)” value was “reduced” and the “in vitro activity compared with in vivo activity of the same analog” value is on record as “greater than its in vivo activity”. In data set [2], the “in vivo activity, % corticosterone induction relative to mACTH(1-24)” value is reported as “reduced”.

For (PVKVYP19-24AAAAA)mACTH [Sample 5], the “in vivo activity, percent greater than the in vitro activity of unmodified mACTH” value in data set [2] (FIG. 5) was “about 50%”. Besides, in data set [2], the “in vivo activity, % corticosterone induction relative to mACTH(1-24)” value was “greater relative to both mACTH and to other ACTH analogs”; the “Percent reduction in serum corticosteroid” value came out at 51%. The serum half life entry in data set [2] (inferred from in vivo versus in vitro activity, FIG. 5) is reported as “increased serum half life”.

Regarding “(K15Q, R17Q)mACTH(1-24) [ACTH analog 440]”, in data set [1], the “in vitro activity, % corticosterone induction relative to mACTH(1-24)” value is “reduced” and the “in vitro activity compared with in vivo activity of the same analog” value was “greater than its in vivo activity”. The “in vivo activity, % corticosterone induction relative to mACTH(1-24)” value in data set [2] is reported as “reduced”.

Consider “(P19W, K21A, delY23)mACTH (SYSMEHFRWGKPVGKKRRWVAVPNVAENESAEAFPLEF; Corticotropin; UniProt P01193 124-162, looked up, variant P19W K21A Y23*) [Sample 8]”, for which the “Percent reduction in serum corticosteroid” value in data set [2] stood at 76.0%.

Regarding “(K16A, R18A)mACTH(1-24) [ACTH analog 430]”, in data set [1], the “in vitro activity, % corticosterone induction relative to mACTH(1-24)” value is reported as “reduced” and the “in vitro activity compared with in vivo activity of the same analog” value is “greater than its in vivo activity”. The “in vivo activity, % corticosterone induction relative to mACTH(1-24)” value in data set [2] is on record as “reduced”.

As to “(K15A, R17A)mACTH(1-24) [ACTH analog 410]”, in data set [1], the “in vitro activity, % corticosterone induction relative to mACTH(1-24)” value is reported as “reduced” and the “in vitro activity compared with in vivo activity of the same analog” value is reported as “greater than its in vivo activity”. The “in vivo activity, % corticosterone induction relative to mACTH(1-24)” value in data set [2] is “reduced”.

For the origin of these results see patent US7919577B2, “Adrenocorticotropic hormone analogs and related methods” (Colorado Seminary, priority 2004, dated 2011).
